In patent publication US20230391748A1, “BICYCLIC INHIBITORS OF IRAK” (priority 2022, published 2023):

Experiments:
IRAK4 = IRAK4 (Homo sapiens (Human), UniProt Q9NWZ3); test: IRAK4 ADP-Glo Assay; assay type: biochemical; details: MBP substrate
Description: The ADP-Glo™ reagents were thawed at ambient temperature. The Kinase Detection Reagent was prepared by mixing kinase detection buffer with the lyophilized kinase detection substrate, and set aside.
A stock volume of 5× Reaction Kinase Buffer was made with a final concentration of 100 mM MgCl2, 200 mM Tris-HCl, and 0.5 mg/ml of BSA, in distilled H2O with a final pH7.4. A 2× working stock volume of Reaction Kinase Buffer was made containing a final concentration of 100 μM DTT.
The components of IRAK4 Enzyme were thawed on ice. Diluted IRAK4 in 1× Kinase Reaction Buffer (diluted from 2× buffer) was prepared at 5.0 ng/μl.
Then diluted 1:5 in 2× Reaction Buffer in a 96 well plate. 1.0 μl was transferred to a 384 well plate in duplicate. […] 1 μl of 1 mg/ml stock solution of MBP substrate was added NOTE: MBP can be combined with ATP mix with equal volume and then added at 2 μl/well. Final reaction volume was 5 μl.
The plate was centrifuged and the reaction mixture was incubated at room temperature for 60 minutes or at 30° C. for 30 minutes.
The reaction was terminated and the remaining ATP was depleted by adding 5 μl of ADP-Glo™ Reagent. The 384-well plate was centrifuged and then the reaction mixture was incubated for another 40 minutes at ambient temperature.
10 μl of the Kinase Detection Reagent was added. The plate was centrifuged and then the reaction mixture was incubated for another 30 minutes at ambient temperature.
The 384-well reaction plate was read using the WALLAC plate reader (Luminescence 0.1s).

[1] = system: TNF-α in Human Primary Monocyte-Derived Dendritic Cells; test: Gardiquimod-Induced TNF-α in Human Primary Monocyte-Derived Dendritic Cells; assay type: cell-based; details: Dendritic cell, IFNγ-primed monocyte-derived dendritic cells, 4 μg/ml Gardiquimod, 6 hours, TNF-α ELISA, read-out: TNFα (DC, GARD) (IC50)
Description: Gardiquimod-Induced TNF-α in Human Primary Monocyte-Derived Dendritic Cells
After 2 hours, the media including floating cells was carefully removed and 12 ml of fresh RPMI media (10% FBS) containing GM-CSF (100 ng/ml) and IL-4 (20 ng/ml) were added to the adherent monocytes. The monocytes were allowed to differentiate for 7 days at 37° C., 5% CO2 for 7 days, supplementing with fresh GM-CSF and IL-4 after 3 days. The differentiated dendritic cells (DC) were harvested by centrifugation (1200 rpm/5 min). The DCs were primed at 37° C., 5% CO2 for 24 hours with 50 ng/ml IFN-γ (1000 U/ml) at 50K/well in 100 μl/well of fresh RPMI media (10% FBS) in a white clear bottom 96 well plate.
The primed DCs were pre-incubated with test compound for 1 hour at 37° C., 5% CO2 by adding 100 μl of RPMI media containing 2× concentrated test compound per well (0.5% final DMSO concentration).
DCs were stimulated with Gardiquimod (10 μl per well of 20× concentrated Gardiquimod solution in RPMI media to give a final concentration of 4 μg/ml) at 37° C., 5% CO2 for an additional 6 hours. The supernatant (100 μl/well) was harvested to measure TNF-α by ELISA. […] The chemiluminescence values were entered into Athena (Rigel) for curve fitting, EC50 calculation, and database storage.
(§1) TNF-α ELISA was performed according to the vendor protocol, using 96 Well Flat-Bottom, MaxiSorp Black Immuno plates and 100 μL/well of supernatant. The plates were developed using 100 μL/well of Super Signal ELISA Pico Chemiluminescent Substrate. The plates were read with a luminometer, and the chemiluminescence values were entered into Athena (Rigel) for curve fitting, EC50 calculation, and database storage.

TNF-α in human PBMCs = test: R848-induced TNF-α in human PBMCs Assay; assay type: cell-based; details: Homo sapiens, PBMC, 4 h, read-out: TNFα (PBMC, R848) (IC50, μM)
Description: R848-induced TNF-α in human PBMCs Assay
100 μL/well PBMCs (200K/well) were seeded in 96-well flat-bottom tissue culture plates. […] 100 μL/well 2× compound was added to the PBMC in the tissue culture plates. […] The cells were stimulated with R848 for an additional 4 hours at 37° C., 5% CO2. The supernatant (100 μl/well) was harvested to measure TNF-α by ELISA. […] The chemiluminescence values were entered into Athena (Rigel) for curve fitting, EC50 calculation, and database storage.
as §1

IL23p19 in THP-1 Cells = test: LPS Induced IL23p19 in THP-1 Cells (with IFNγ Primed) Assay; assay type: cell-based; details: Homo sapiens, THP-1, 18 h, read-out: IL23 (THP, LPS) (IC50, μM)
Description: LPS Induced IL23p19 in THP-1 Cells (with IFNγ Primed) Assay
On day 1, 50K/well THP-1 cells were seeded and primed with IFNγ (50 ng/mL) in 384-well plates for about 18 hours in RPMI media with 10% FBS. […] 50 μL/well 2× compound was added to 50 μL/well THP-1 cells (with IFNγ primed) in duplicate in 384 well tissue culture plates. […] Day 3, after stimulation for 18 hours at 37° C., 5% CO2, the assay plate was centrifuged and 70 μL/well supernatant was harvested. IL-23p19 protein in 70 µL/well of supernatant was measured by sandwich ELISA, and 25 μl/well Cell Titer Glo reagent was added to the remaining cells to measure compound toxicity.
Maxisorp immuno ELISA plates were pre-coated with 25 μL/well of anti-IL-23p19 capture antibody (2.5 ug/mL) in PBS overnight at room temperature. […] 25 μL/well of biotin labeled anti-IL-12(p40/p70) detection antibody (100 ng/mL) in PBS with 1% BSA was added and the plates were incubated at room temperature for 2 hours with shaking. […] The plates were read with a luminometer, and the chemiluminescence values were entered into Athena (Rigel) for curve fitting, EC50 calculation, and database storage.

IRAK4, sequence (Q9NWZ3 whole entry): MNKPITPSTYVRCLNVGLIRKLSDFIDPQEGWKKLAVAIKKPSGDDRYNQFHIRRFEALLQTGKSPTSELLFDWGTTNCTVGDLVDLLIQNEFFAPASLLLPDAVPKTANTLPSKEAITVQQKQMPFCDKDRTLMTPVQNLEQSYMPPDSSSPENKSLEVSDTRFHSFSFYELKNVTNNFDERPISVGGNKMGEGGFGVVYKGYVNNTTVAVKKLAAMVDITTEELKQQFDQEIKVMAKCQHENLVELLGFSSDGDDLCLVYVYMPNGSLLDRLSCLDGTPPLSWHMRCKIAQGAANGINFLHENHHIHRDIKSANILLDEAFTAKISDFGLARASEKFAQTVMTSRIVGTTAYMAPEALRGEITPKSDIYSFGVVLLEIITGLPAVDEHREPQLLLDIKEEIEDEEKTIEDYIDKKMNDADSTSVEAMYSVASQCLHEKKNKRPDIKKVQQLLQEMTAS

`CC(C)Oc1cc2c(OC[C@@H]3CCC(=O)N3)ncc(C#CC(C)(C)CO)c2cc1C(N)=O` [Compound I-5, (S)-4-(4-hydroxy-3,3-dimethylbut-1-yn-1-yl)-7-isopropoxy-1-((5-oxopyrrolidin-2-yl)methoxy)isoquinoline-6-carboxamide] gave an IC50 (IRAK4) of 120 nM, an IC50 [1] of 488 nM and an IC50 (TNF-α in human PBMCs) of 0.433 µM. It also gave an IC50 (IL23p19 in THP-1 Cells) of 6.51 µM.

Molecule `CC(C)Oc1cc2c(OC[C@@H]3CCC(=O)N3)ncc(C#CC3CCOCC3)c2cc1C(N)=O` [Compound I-6, (S)-7-isopropoxy-1-((5-oxopyrrolidin-2-yl)methoxy)-4-((tetrahydro-2H-pyran-4-yl)ethynyl)isoquinoline-6-carboxamide] has an IC50 (IRAK4) of 5.1 nM, an IC50 [1] of 334 nM and an IC50 (TNF-α in human PBMCs) of 0.199 µM. It also gave an IC50 (IL23p19 in THP-1 Cells) of 0.195 µM.

Molecule `CC(C)Oc1cc2c(OC[C@@H]3CCC(=O)N3)ncc(C#CCN3CCOCC3)c2cc1C(N)=O` [Compound I-7, (S)-7-isopropoxy-4-(3-morpholinoprop-1-yn-1-yl)-1-((5-oxopyrrolidin-2-yl)methoxy)isoquinoline-6-carboxamide] has an IC50 (IRAK4) of 8.2 nM, an IC50 [1] of 383 nM and an IC50 (TNF-α in human PBMCs) of 0.402 µM. It also gave an IC50 (IL23p19 in THP-1 Cells) of 0.527 µM.

Molecule `CC(C)Oc1cc2c(OC[C@@H]3CCC(=O)N3)ncc(C#CCCN3CCOCC3)c2cc1C(N)=O` [Compound I-8, (S)-7-isopropoxy-4-(4-morpholinobut-1-yn-1-yl)-1-((5-oxopyrrolidin-2-yl)methoxy)isoquinoline-6-carboxamide] has an IC50 (IRAK4) of 12.3 nM, an IC50 [1] of 313 nM and an IC50 (TNF-α in human PBMCs) of 0.411 µM. It also gave an IC50 (IL23p19 in THP-1 Cells) of 0.332 µM.

`CC(C)Oc1cc2c(OC[C@@H]3CCC(=O)N3)ncc(C#CC3(O)CCCC3)c2cc1C(N)=O` [Compound I-9, (S)-4-((1-hydroxycyclopentyl)ethynyl)-7-isopropoxy-1-((5-oxopyrrolidin-2-yl)methoxy)isoquinoline-6-carboxamide] showed an IC50 (IRAK4) of 9.9 nM, an IC50 [1] of 210 nM and an IC50 (TNF-α in human PBMCs) of 0.319 µM. For the same molecule, the IC50 (IL23p19 in THP-1 Cells) was 0.394 µM.

`CC(C)Oc1cc2c(OC[C@@H]3CCC(=O)N3)ncc(C#CC3(O)CCOCC3)c2cc1C(N)=O` [Compound I-10, (S)-4-((4-hydroxytetrahydro-2H-pyran-4-yl)ethynyl)-7-isopropoxy-1-((5-oxopyrrolidin-2-yl)methoxy)isoquinoline-6-carboxamide] gave an IC50 (IRAK4) of 11.6 nM, an IC50 [1] of 2930 nM and an IC50 (TNF-α in human PBMCs) of 0.873 µM. For the same molecule, the IC50 (IL23p19 in THP-1 Cells) was 3.28 µM.

For `CC(C)Oc1cc2c(OC[C@@H]3CCC(=O)N3)ncc(C#CCC3CCOCC3)c2cc1C(N)=O` [Compound I-11, (S)-7-isopropoxy-1-((5-oxopyrrolidin-2-yl)methoxy)-4-(3-(tetrahydro-2H-pyran-4-yl)prop-1-yn-1-yl)isoquinoline-6-carboxamide], the IC50 (IRAK4) was 10.5 nM, the IC50 [1] was 199 nM and the IC50 (TNF-α in human PBMCs) was 0.32 µM. For the same molecule, the IC50 (IL23p19 in THP-1 Cells) was 0.474 µM.

For `CC(C)Oc1cc2c(OC[C@@H]3CCC(=O)N3)ncc(C#CC3(O)CCN(C(=O)OC(C)(C)C)CC3)c2cc1C(N)=O` [Compound I-12, tert-butyl (S)-4-((6-carbamoyl-7-isopropoxy-1-((5-oxopyrrolidin-2-yl)methoxy)isoquinolin-4-yl)ethynyl)-4-hydroxypiperidine-1-carboxylate], the IC50 (IRAK4) was 41.2 nM, the IC50 [1] was 6090 nM and the IC50 (TNF-α in human PBMCs) was 0.448 µM. It also gave an IC50 (IL23p19 in THP-1 Cells) of 1.25 µM.

In the case of `CC(C)Oc1cc2c(OC[C@@H]3CCC(=O)N3)ncc(C#CC3(O)CCNCC3)c2cc1C(N)=O` [Compound I-13, (S)-4-((4-hydroxypiperidin-4-yl)ethynyl)-7-isopropoxy-1-((5-oxopyrrolidin-2-yl)methoxy)isoquinoline-6-carboxamide], the IC50 (IRAK4) is reported as 14.9 nM, the IC50 [1] is reported as 3500 nM and the IC50 (TNF-α in human PBMCs) is reported as 4.67 µM. The IC50 (IL23p19 in THP-1 Cells) was 4.64 µM.

Molecule `CC(C)Oc1cc2c(OC[C@@H]3CCC(=O)N3)ncc(C#CC3CCN(C(=O)OC(C)(C)C)CC3)c2cc1C(N)=O` [Compound I-15, tert-butyl (S)-4-((6-carbamoyl-7-isopropoxy-1-((5-oxopyrrolidin-2-yl)methoxy)isoquinolin-4-yl)ethynyl)piperidine-1-carboxylate] has an IC50 (IRAK4) of 15.9 nM, an IC50 [1] of 71.9 nM and an IC50 (TNF-α in human PBMCs) of 0.0874 µM. For the same molecule, the IC50 (IL23p19 in THP-1 Cells) was 0.525 µM.

For `COC(=O)N1CCC(C#Cc2cnc(OC[C@@H]3CCC(=O)N3)c3cc(OC(C)C)c(C(N)=O)cc23)CC1` [Compound I-16, methyl (S)-4-((6-carbamoyl-7-isopropoxy-1-((5-oxopyrrolidin-2-yl)methoxy)isoquinolin-4-yl)ethynyl)piperidine-1-carboxylate], the IC50 (IRAK4) was 11.9 nM, the IC50 [1] was 245 nM and the IC50 (TNF-α in human PBMCs) was 0.0474 µM. For the same molecule, the IC50 (IL23p19 in THP-1 Cells) was 0.0886 µM.

`CC(C)Oc1cc2c(OC[C@@H]3CCC(=O)N3)ncc(C#CC3CCNCC3)c2cc1C(N)=O` [Compound I-17, (S)-7-isopropoxy-1-((5-oxopyrrolidin-2-yl)methoxy)-4-(piperidin-4-ylethynyl)isoquinoline-6-carboxamide] showed an IC50 (IRAK4) of 1.7 nM, an IC50 [1] of 17200 nM and an IC50 (TNF-α in human PBMCs) of 1.33 µM. It also gave an IC50 (IL23p19 in THP-1 Cells) of 11.2 µM.

For `CC(C)Oc1cc2c(OC[C@@H]3CCC(=O)N3)ncc(C#CC3CCN(C)CC3)c2cc1C(N)=O` [Compound I-18, (S)-7-isopropoxy-4-((1-methylpiperidin-4-yl)ethynyl)-1-((5-oxopyrrolidin-2-yl)methoxy)isoquinoline-6-carboxamide], the IC50 (IRAK4) was 2.3 nM, the IC50 [1] was 203 nM and the IC50 (TNF-α in human PBMCs) was 0.306 µM. The IC50 (IL23p19 in THP-1 Cells) was 0.606 µM.

For `CCO[C@H]1CC[C@H](C#Cc2cnc(OC[C@@H]3CCC(=O)N3)c3cc(OC(C)C)c(C(N)=O)cc23)CC1` [Compound I-20, 4-(((1r,4S)-4-ethoxycyclohexyl)ethynyl)-7-isopropoxy-1-(((S)-5-oxopyrrolidin-2-yl)methoxy)isoquinoline-6-carboxamide], the IC50 (IRAK4) was 7 nM, the IC50 [1] was 63.4 nM and the IC50 (TNF-α in human PBMCs) was 0.0688 µM. For the same molecule, the IC50 (IL23p19 in THP-1 Cells) was 0.11 µM.

`CCO[C@H]1CC[C@@H](C#Cc2cnc(OC[C@@H]3CCC(=O)N3)c3cc(OC(C)C)c(C(N)=O)cc23)CC1` [Compound I-21, 4-((cis-4-ethoxycyclohexyl)ethynyl)-7-isopropoxy-1-(((S)-5-oxopyrrolidin-2-yl)methoxy)isoquinoline-6-carboxamide] was tested, and the IC50 (IRAK4) was 5.6 nM, the IC50 [1] was 101 nM and the IC50 (TNF-α in human PBMCs) was 0.104 µM. For the same molecule, the IC50 (IL23p19 in THP-1 Cells) was 0.194 µM.
